Data on 24 compounds can be found in patent US10266526B2, “Substituted 1,2,3-triazoles as SMYD inhibitors for treating cancer” (EPIZYME, INC., priority 2014, dated 2019).

Experiment [1] has as its system esophageal, liver and breast cancer cell lines. The following applies: several esophageal, dose-dependent; cited from earlier work.
For experiment [2], the target named is T1, SMYD3 (Homo sapiens (Human), UniProt Q9H7B4). Briefly: SMYD3 biochemical assay (SMYD3 enzyme assay on MEKK2 protein substrate, 3H-SAM scintillation proximity assay). The following applies: Table 3A; average of n = 1 to n = 50; read-out: SMYD3 Biochem IC50. A digest of the protocol: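 Native full-length human SMYD3, expressed in E. coli, was preincubated with compound for 30 min at room temperature in 25 mM Tris-Cl pH 8.0, 1 mM TCEP, 0.005% BSG and 0.005% Tween 20. ³H-SAM plus GST-MEKK2 then started the reaction. It was stopped with unlabeled SAM (100 uM final), and methylated MEKK2 was read by SPA.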
(SPA uses beads or plates that emit light when radiolabelled molecules are held near them.)

Experiment [3] concerns the target T1, SMYD3. Nature of the experiment: SMYD3 cell assay (Trimethyl-MEKK2 In-Cell Western in 293T/17 cells transfected with MEKK2-flag and SMYD3). The class given is cell-based. A digest of the protocol:
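Methanol-fixed cells stained in-cell Western for trimethyl-MEKK2 and anti-flag. Ratio-based % inhibition against DMSO and background controls; IC50 by non-linear regression, triplicate wells.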

The mark [4] stands for this setting: Table 3A, average of n = 1 to n = 50, read-out: SMYD3 cell IC50.

Structures can show the parent of a compound that is named as a salt. Bounds are passed on as bounds.

T1 sequence (Q9H7B4 whole entry): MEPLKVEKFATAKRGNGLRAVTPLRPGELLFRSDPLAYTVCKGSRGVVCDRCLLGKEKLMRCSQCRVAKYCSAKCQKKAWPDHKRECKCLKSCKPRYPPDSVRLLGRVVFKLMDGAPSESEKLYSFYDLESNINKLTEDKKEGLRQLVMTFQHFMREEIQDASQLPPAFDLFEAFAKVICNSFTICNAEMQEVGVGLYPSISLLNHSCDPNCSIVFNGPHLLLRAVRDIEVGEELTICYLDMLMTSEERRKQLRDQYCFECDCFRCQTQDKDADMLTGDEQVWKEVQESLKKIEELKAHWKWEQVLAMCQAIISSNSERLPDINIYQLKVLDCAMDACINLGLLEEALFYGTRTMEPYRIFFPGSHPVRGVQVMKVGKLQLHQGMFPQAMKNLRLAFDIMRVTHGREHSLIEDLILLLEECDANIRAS

As for `Cc1cn(CCN2CCN(c3ccccc3-c3cc(C#N)cc(C(=O)NCCCN4CCCC4)c3)CC2)c2ccccc12` [LLY-507], the “proliferation of cancer cell lines” value in experiment [1] was “inhibited the proliferation”.

Turning to `NC1CCN(S(=O)(=O)N2[C@@H]3CC[C@H]2C[C@@H](NC(=O)c2nnc(C4CC4)s2)C3)CC1` [compound 618, N-((1R,3r,5S)-8-((4-aminopiperidin-1-yl)sulfonyl)-8-azabicyclo[3.2.1]octan-3-yl)-5-cyclopropyl-1,3,4-thiadiazole-2-carboxamide], the figures for the IC50 at SMYD3 [2] and on SMYD3 [3] (setting [4]) were 0.0558 µM and 0.348 µM, respectively. For the compound `CCc1cnnc(C(=O)N[C@H]2CCN(S(=O)(=O)N3CCC(N)CC3)[C@@H](C)C2)c1` [compound 619, N-((2S,4S)-1-((4-aminopiperidin-1-yl)sulfonyl)-2-methylpiperidin-4-yl)-5-ethylpyridazine-3-carboxamide], the values for the IC50 at SMYD3 [2] and at SMYD3 [3] (setting [4]) were 0.0596 µM and 0.468 µM, respectively. For `O=C1Cc2cc(C(=O)NC3CCN(S(=O)(=O)CC4CCNCC4)CC3)ccc2N1` [compound 620, 2-oxo-N-[1-[(piperidin-4-ylmethane)sulfonyl]piperidin-4-yl]-2,3-dihydro-1H-indole-5-carboxamide Trifluoroacetate] the same measures were 0.0682 µM and at least 10 µM. With `NCCCS(=O)(=O)N1CCC(NC(=O)c2cc3c(cc2Cl)NC(=O)C3)CC1` [compound 621, N-(1-((3-aminopropyl)sulfonyl)piperidin-4-yl)-6-chloro-2-oxoindoline-5-carboxamide], the values for the IC50 on SMYD3 [2] and on SMYD3 [3] (setting [4]) were 0.0775 µM and 6.84 µM, respectively. Taken in the same sequence, the figures for `N[C@H]1CC[C@H](S(=O)(=O)N2[C@@H]3CC[C@H]2C[C@@H](NC(=O)c2ccc4c(c2)OC(F)(F)O4)C3)CC1` [compound 623, N-((1R,3R,5S)-8-(((1r,4R)-4-aminocyclohexyl)sulfonyl)-8-azabicyclo[3.2.1]octan-3-yl)-2,2-difluorobenzo[d][1,3]dioxole-5-carboxamide] were 0.136 µM and 0.896 µM. As for `NCCCS(=O)(=O)N1CCC(NC(=O)c2ccc3c(c2)CC(=O)N3)CC1` [compound 624, N-(1-((3-aminopropyl)sulfonyl)piperidin-4-yl)-2-oxoindoline-5-carboxamide], the half-inhibitory concentration (IC50) (in general, the point on the concentration scale where inhibition reaches its midpoint) was 0.159 µM at SMYD3 [2] and at least 10 µM at SMYD3 [3] (setting [4]). For `NC1CCN(S(=O)(=O)N2[C@@H]3CC[C@H]2C[C@@H](NC(=O)c2ccc4c(c2)OC(F)(F)O4)C3)CC1` [compound 626, N-((1R,3r,5S)-8-((4-aminopiperidin-1-yl)sulfonyl)-8-azabicyclo[3.2.1]octan-3-yl)-2,2-difluorobenzo[d][1,3]dioxole-5-carboxamide] the same measures were 0.222 µM and 2.97 µM. Taken in the same sequence, the figures for `O=C(N[C@H]1C[C@H]2CC[C@@H](C1)N2S(=O)(=O)[C@H]1CC[C@H](NCc2ccccc2)CC1)c1ccc2c(c1)OC(F)(F)O2` [compound 627, N-((1R,3R,5S)-8-(((1r,4R)-4-(benzylamino)cyclohexyl)sulfonyl)-8-azabicyclo[3.2.1]octan-3-yl)-2,2-difluorobenzo[d][1,3]dioxole-5-carboxamide] were 0.225 µM and 1.54 µM. For `O=C(N[C@H]1C[C@H]2CC[C@@H](C1)N2S(=O)(=O)CC1CCNCC1)c1ccc2c(c1)OC(F)(F)O2` [compound 628, 2,2-difluoro-N-((1R,3r,5S)-8-((piperidin-4-ylmethyl)sulfonyl)-8-azabicyclo[3.2.1]octan-3-yl)benzo[d][1,3]dioxole-5-carboxamide] the same measures were 0.232 µM and 3.62 µM. Regarding `CCc1cc(C(=O)N[C@@H]2CCN(S(=O)(=O)N3CCC(N)CC3)[C@@H](C)C2)ns1` [compound 629, N-((2S,4R)-1-(4-aminopiperidin-1-ylsulfonyl)-2-methylpiperidin-4-yl)-5-ethyl-1,2-thiazole-3-carboxamide], the IC50 came out at 0.326 µM on SMYD3 [2] and 2.08 µM at SMYD3 [3] (setting [4]). Taken in the same sequence, the figures for `CN1CCC(CS(=O)(=O)N2[C@@H]3CC[C@H]2C[C@@H](NC(=O)c2ccc4c(c2)OC(F)(F)O4)C3)CC1` [compound 630, 2,2-difluoro-N-((1R,3r,5S)-8-(((1-methylpiperidin-4-yl)methyl)sulfonyl)-8-azabicyclo[3.2.1]octan-3-yl)benzo[d][1,3]dioxole-5-carboxamide] were 0.361 µM and 6.55 µM. As for `C[C@H]1C[C@H](NC(=O)c2nnc(C3CC3)s2)CCN1S(=O)(=O)N1CCC(N)CC1` [compound 631, N-((2S,4R)-1-((4-aminopiperidin-1-yl)sulfonyl)-2-methylpiperidin-4-yl)-5-cyclopropyl-1,3,4-thiadiazole-2-carboxamide], the IC50 on SMYD3 [2] came out at 0.47 µM; on SMYD3 [3] (setting [4]), 4.9 µM. Taken in the same sequence, the figures for `CC(=O)Nc1ccc(S(=O)(=O)N2CC[C@H](NC(=O)c3ccc4c(c3)CC(=O)N4)C[C@@H]2C)cc1` [compound 632, N-((2S,4S)-1-(4-acetamidophenylsulfonyl)-2-methylpiperidin-4-yl)-2-oxoindoline-5-carboxamide] were 0.526 µM and at least 10 µM.

On to `NC1CCN(S(=O)(=O)N2[C@@H]3CC[C@H]2C[C@@H](NC(=O)c2cc(C4CC4)[nH]n2)C3)CC1` [compound 633, N-((1R,3r,5S)-8-((4-aminopiperidin-1-yl)sulfonyl)-8-azabicyclo[3.2.1]octan-3-yl)-5-cyclopropyl-1H-pyrazole-3-carboxamide], for which the concentration for half-maximal inhibition (IC50) at SMYD3 [2] was 0.529 µM; at SMYD3 [3] (setting [4]) it was at least 10 µM. On to `C[C@@H]1CN(S(=O)(=O)N2CCC(N)CC2)CC[C@@H]1NC(=O)c1cc2c(cc1Cl)NC(=O)C2` [compound 634, N-((3R,4S)-1-((4-aminopiperidin-1-yl)sulfonyl)-3-methylpiperidin-4-yl)-6-chloro-2-oxoindoline-5-carboxamide], for which the IC50 on SMYD3 [2] is 0.529 µM; on SMYD3 [3] (setting [4]), 0.972 µM.

For `CCc1cccc(C(=O)N[C@H]2C[C@H]3CC[C@@H](C2)N3S(=O)(=O)CC2CCNCC2)c1` [compound 635, 3-ethyl-N-((1R,3r,5S)-8-((piperidin-4-ylmethyl)sulfonyl)-8-azabicyclo[3.2.1]octan-3-yl)benzamide], the half-maximal inhibitory concentration (IC50) at SMYD3 [2] is 0.62 µM; at SMYD3 [3] (setting [4]), at least 10 µM. Regarding `NC1CCN(S(=O)(=O)N2[C@@H]3CC[C@H]2C[C@@H](NC(=O)c2ccc4c(c2)OCC(=O)N4)C3)CC1` [compound 636, N-((1R,3r,5S)-8-((4-aminopiperidin-1-yl)sulfonyl)-8-azabicyclo[3.2.1]octan-3-yl)-3-oxo-3,4-dihydro-2H-benzo[b][1,4]oxazine-7-carboxamide], the IC50 on SMYD3 [2] is 0.819 µM; at SMYD3 [3] it was at least 10 µM. As to `NC1CCN(S(=O)(=O)N2[C@@H]3CC[C@H]2C[C@@H](NC(=O)c2cnn(C4CC4)c2)C3)CC1` [compound 637, N-((1R,3r,5S)-8-((4-aminopiperidin-1-yl)sulfonyl)-8-azabicyclo[3.2.1]octan-3-yl)-1-cyclopropyl-1H-pyrazole-4-carboxamide], the IC50 is 0.839 µM on SMYD3 [2] and at least 10 µM at SMYD3 [3] (setting [4]). For `N[C@H]1CC[C@H](C(=O)N2[C@@H]3CC[C@H]2C[C@@H](NC(=O)c2ccc4c(c2)CC(=O)N4)C3)CC1` [compound 638, N-((1R,3R,5S)-8-((1r,4R)-4-aminocyclohexane-1-carbonyl)-8-azabicyclo[3.2.1]octan-3-yl)-2-oxoindoline-5-carboxamide] the same measures were 0.962 µM and at least 10 µM. For `C[C@H]1C[C@@H](NC(=O)c2cnn(C3CC3)c2)CCN1S(=O)(=O)N1CCC(N)CC1` [compound 639, N-((2S,4S)-1-((4-aminopiperidin-1-yl)sulfonyl)-2-methylpiperidin-4-yl)-1-cyclopropyl-1H-pyrazole-4-carboxamide] the same measures were 1 µM and at least 10 µM. With `CC(=O)Nc1ccc(S(=O)(=O)N2CCC(NC(=O)c3cc4c(cc3Cl)NC(=O)C4)CC2)cc1` [compound 641, N-(1-((4-acetamidophenyl)sulfonyl)piperidin-4-yl)-6-chloro-2-oxoindoline-5-carboxamide], the IC50 is 5.93 µM at SMYD3 [2] and at least 10 µM at SMYD3 [3] (setting [4]). `CC(=O)Nc1ccc(S(=O)(=O)N2CCC(NC(=O)c3ccc4c(c3)CC(=O)N4)CC2)cc1` [compound 643, N-(1-((4-acetamidophenyl)sulfonyl)piperidin-4-yl)-2-oxoindoline-5-carboxamide]: the IC50 on SMYD3 [2] is 16.9 µM; on SMYD3 [3] (setting [4]), at least 10 µM. For `NC1CCN(S(=O)(=O)N2[C@@H]3CC[C@H]2C[C@@H](NC(=O)c2cc(C4CC4)no2)C3)CC1` [compound 644, N-((1R,3r,5S)-8-((4-aminopiperidin-1-yl)sulfonyl)-8-azabicyclo[3.2.1]octan-3-yl)-3-cyclopropylisoxazole-5-carboxamide] the same measures were 0.0185 µM and 0.257 µM.
